In US12427179B2, “Compositions and methods for diagnosis and treatment of neurodegenerative diseases” (EPITRACKER, INC., priority 2019, dated 2025):

What was measured:
[1] = tested on: human primary cell-based systems; assay: BioMAP Diversity PLUS panel, phenotypic profiling; conditions: tested at 6.7 and/or 20 μM; 24 to 72 hours
Experimental: (§1) Anti-inflammatory phenotypic profiling was conducted across 12 human primary cell-based systems as part of DiscoverX's BioMAP Diversity Plus program. These systems are designed to model complex human tissue and disease biology of the vasculature, skin, lung, and inflammatory tissues. Quantitative measurements of biomarker activities across this broad panel were used to assess each biochemical's anti-inflammatory activity at four concentrations ([…] and 2.2, 6.7 and 20 μM). […] Protein-based biomarkers from activated cell systems were measured and compared with controls.
(§2) The Diversity PLUS panel allows test agent characterization in an unbiased way across a broad set of systems modeling various human disease states. These systems are designed to model complex human tissue and disease biology of the vasculature, skin, lung, and inflammatory tissues. Quantitative measurements of 148 biomarker activities across this broad panel, along with comparative analysis of biological activities from known bioactive agents, were used to predict and compare the efficacy and function of each selected compound at selected concentrations (6.7 and/or 20 μM).
(§3) BioMAP systems are constructed with one or more primary cell types from healthy human donors, with stimuli (such as cytokines or growth factors) added to capture relevant signaling networks that naturally occur in human tissue or pathological conditions. Vascular biology is modeled in both a Th1 (3C system) and a Th2 (4H system) inflammatory environment, as well as in a Th1 inflammatory state specific to arterial smooth muscle cells (CASM3C system). Additional systems recapitulate aspects of the systemic immune response including monocyte-driven Th1 inflammation (LPS system) or T cell stimulation (SAg system), chronic Th1 inflammation driven by macrophage activation (lMphg system) and the T cell-dependent activation of B cells that occurs in germinal centers (BT system). The BE3C system (Th1) and the BF4T system (Th2) represent airway inflammation of the lung, while the MyoF system models myofibroblast-lung tissue remodeling. Lastly, skin biology is addressed in the KF3CT system modeling Th1 cutaneous inflammation and the HDF3CGF system modeling wound healing.
(§4) Each test agent generates a signature BioMAP profile that is created from the changes in protein biomarker readouts within individual system environments. Biomarker readouts (7-17 per system) are selected for therapeutic and biological relevance, are predictive for disease outcomes or specific drug effects and are validated using agents with known mechanism of action (MoA). Each readout is measured quantitatively by immune-based methods that detect protein (e.g., ELISA) or functional assays that measure proliferation and viability. BioMAP readouts are diverse and include cell surface receptors, cytokines, chemokines, matrix molecules and enzymes. In total, the Diversity PLUS panel contains 148 biomarker readouts that capture biological changes that occur within the physiological context of the particular BioMAP system.
(§5) Activated BioMAP systems were incubated with each compound for 24 to 72 hours. Protein-based biomarkers from activated cell systems were measured and compared with non-treated control systems.

[2] = tested on: SAg: Venular endothelial cells, peripheral blood mononuclear cells (TCR ligands); assay: BioMAP SAg system; assay type: cell-based, human; conditions: SAg system; at the compound's active concentration
Experimental: as §1, with “controls. Biomarker activities were annotated when 2 or more consecutive concentrations change in the same directions relative to vehicle controls, were outside of the significance envelope and had at least one concentration with an effect size>20% (log 10 ratio)>0.1.” for “controls.”
In this system, human primary peripheral blood mononuclear cells and human umbilical vein endothelial cells were stimulated with T-cell receptor ligands and incubated with the test agent, drug control, or vehicle control for 24 hours. A negative, non-stimulated system was also included. […] This antiproliferative activity was lost at higher concentrations (20 μM). In this system, T cell proliferation is considered a critical event driving an inflammatory response.
as §2, with “μM). […]” for “μM).”
as §4, with “system. […]” for “system.”

[3] = tested on: BT: Peripheral blood mononuclear cells, B cells (α-IgM, TCR ligands); assay: BioMAP BT system; assay type: cell-based, human
Experimental: as §1, with “controls. Biomarker activities were annotated when 2 or more consecutive concentrations change in the same directions relative to vehicle controls, were outside of the significance envelope and had at least one concentration with an effect size>20% (log 10 ratio)>0.1.” for “controls.”
(§6) In the first system, human primary peripheral blood mononuclear cells and venular endothelial cells were stimulated with lipopolysaccharide (LPS) and incubated with the test agent, drug control, or vehicle control for 24 hours. In the second system, peripheral blood mononuclear cells and B cells were stimulated with α-IgM and T cell receptor ligands and incubated with the test agent, drug control, or vehicle control for 24 hours. In both systems, a negative, non-stimulated system was also included.
as §2, §3
as §4, with “system. […]” for “system.”

[4] = tested on: HDF3CGF: Dermal fibroblasts; assay: BioMAP HDF3CGF system; assay type: cell-based, human; conditions: at the compound's active concentration
From the text: as §2, §3
as §4, with “system. Specific BioMAP activities have been correlated to in vivo biology, and multiparameter BioMAP profiles have been used to distinguish compounds based on MoA and target selectivity across diverse physiological systems.” for “system.”
as §5

[5] = tested on: 4H: Venular endothelial cells (IL-4, histamine); assay: BioMAP 4H system; assay type: cell-based, human; conditions: at the compound's active concentration
From the text: as §2
BioMAP systems are constructed with one or more primary cell types from healthy human donors, with stimuli (such as cytokines or growth factors) added to capture relevant signaling networks that naturally occur in human tissue or pathological conditions. Vascular biology is modeled in both a Th1 (3C system) and a Th2 (4H system) inflammatory environment, as well as in a Th1 inflammatory state specific to arterial smooth muscle cells (CASM3C system). […]
as §4, with “system. […]” for “system.”
as §5

[6] = tested on: LPS: Venular endothelial cells, peripheral blood mononuclear cells (TLR4 ligand); assay: BioMAP LPS system; assay type: cell-based, human
Experimental: as §1, with “controls. Biomarker activities were annotated when 2 or more consecutive concentrations change in the same directions relative to vehicle controls, were outside of the significance envelope and had at least one concentration with an effect size>20% (log 10 ratio)>0.1.” for “controls.”
as §6, §2, §3
as §4, with “system. […]” for “system.”

[7] = tested on: CASM3C: Coronary artery smooth muscle cells (IL-1β, TNFα, IFNγ); assay: BioMAP CASM3C system; assay type: cell-based, human; conditions: at the compound's active concentration
From the text: (§7) The Diversity PLUS panel allows test agent characterization in an unbiased way across a broad set of systems modeling various human disease states. These systems are designed to model complex human tissue and disease biology of the vasculature, skin, lung, and inflammatory tissues.
as §3
as §4, with “enzymes.” for “enzymes. In total, the Diversity PLUS panel contains 148 biomarker readouts that capture biological changes that occur within the physiological context of the particular BioMAP system.”
as §5

[8] = tested on: BE3C: Bronchial epithelial cells (IL-1β, IFNγ, TNFα); assay: BioMAP BE3C system; assay type: cell-based, human; conditions: at the compound's active concentration
From the text: as §7, §3
as §4, with “enzymes.” for “enzymes. In total, the Diversity PLUS panel contains 148 biomarker readouts that capture biological changes that occur within the physiological context of the particular BioMAP system.”
as §5

[9] = tested on: /Mphg: Macrophages, venular endothelial cells (TLR2 ligand); assay: BioMAP /Mphg system; assay type: cell-based, human; conditions: at the compound's active concentration
From the text: as §2, §3
as §4, with “system. […]” for “system.”
as §5

[10] = tested on: 3C system (Th1 vascular biology); assay: BioMAP 3C system; assay type: cell-based, human; conditions: at the compound's active concentration
From the text: as §4, with “The Diversity PLUS panel allows test agent characterization in an unbiased way across a broad set of systems modeling various human disease states. These systems are designed to model complex human tissue and disease biology of the vasculature, skin, lung, and inflammatory tissues. […] BioMAP systems are constructed with one or more primary cell types from healthy human donors, with stimuli (such as cytokines or growth factors) added to capture relevant signaling networks that naturally occur in human tissue or pathological conditions. […] Each test” for “Each test”, “BioMAP system. […]” for “BioMAP system.”

[11] = BT system, at the compound's active concentration
[12] = at the compound's active concentration

Structure (SMILES): N=C(N)NCCCC(=O)O [4-guanidinobutanoate]
- Active concentrations [1]: 6.7 to 20 µM
- CD38, log10 reduction vs nontreated controls [2]: −0.10 log10
- T cell proliferation, log10 reduction vs nontreated controls [2]: −0.13 log10
- Secreted IgG, log10 reduction vs nontreated controls [3, 11]: −0.49 log10
- TNF-alpha (sTNF-alpha), log10 reduction vs nontreated controls [3, 11]: −0.10 log10
- sIL-17A, log10 reduction vs nontreated controls [3, 11]: −0.17 log10
- CXCL10, log10 reduction vs nontreated controls [4]: −0.11 log10
- CXCL11, log10 reduction vs nontreated controls [4]: −0.19 log10
- Collagen III, log10 reduction vs nontreated controls [4]: −0.30 log10
- Fibroblast proliferation, log10 reduction vs nontreated controls [4]: −1.09 log10
- TIMP-1, log10 reduction vs nontreated controls [4]: −0.14 log10
- VCAM-1, log10 reduction vs nontreated controls [4]: −0.19 log10
- MCP-1, log10 reduction vs nontreated controls [5]: −0.12 log10

Structure (SMILES): CC(=O)N[C@H](C(=O)O)[C@@H](C)O [N-acetylthreonine]
- Active concentrations [1]: 20 µM
- Secreted IgG, log10 reduction vs nontreated controls [3, 11]: −0.41 log10
- VEGFR2, log10 reduction vs nontreated controls [5]: −0.16 log10

Structure (SMILES): C[C@H](CCC(=O)O)[C@H]1CC[C@H]2[C@@H]3[C@H](O)C[C@@H]4C[C@H](O)CC[C@]4(C)[C@H]3C[C@H](O)[C@]12C [cholate]
- Tissue factor, log10 reduction vs nontreated controls [6, 12]: −0.13 log10
- Active concentrations [1]: 20 µM
- Thrombomodulin, log10 reduction vs nontreated controls ([7]; CASM3C system): −0.12 log10
- MMP-1, log10 reduction vs nontreated controls [8]: −0.10 log10

Structure (SMILES): N[C@@H](CCC(=O)N[C@@H](Cc1c[nH]cn1)C(=O)O)C(=O)O [gamma-glutamylhistidine]
- CD40, log10 reduction vs nontreated controls [6, 12]: −0.11 log10
- E-selectin, log10 reduction vs nontreated controls [6, 12]: −0.11 log10
- Active concentrations [1]: 20 µM
- Thrombomodulin, log10 reduction vs nontreated controls ([7]; CASM3C system): −0.12 log10
- MMP-1, log10 reduction vs nontreated controls [8]: −0.10 log10
- IL-8, log10 reduction vs nontreated controls [9]: −0.15 log10
- TNF-alpha (sTNF-alpha), log10 reduction vs nontreated controls [3, 11]: −0.18 log10
- Tissue factor, log10 reduction vs nontreated controls [10]: −0.12 log10

Structure (SMILES): O[C@H]1[C@H](O)[C@@H](O)[C@H](O)[C@@H](O)[C@H]1O [myo-inositol]
- Active concentrations [1]: 6.7 µM
- M-CSF, log10 reduction vs nontreated controls ([7]; CASM3C system): −0.10 log10
- MMP-1, log10 reduction vs nontreated controls [8]: −0.12 log10

Structure (SMILES): COc1cc(C(O)C(=O)O)ccc1O (centres unmarked) [vanillylmandelate (VMA), vanillylmandelate]
- IL-8, log10 reduction vs nontreated controls [9]: −0.18 log10

Structure (SMILES): O=c1[nH]c(=O)c2ncn([C@@H]3O[C@H](CO)[C@@H](O)[C@H]3O)c2[nH]1 [xanthosine]
- CD40, log10 reduction vs nontreated controls [6, 12]: −0.12 log10
- Tissue factor, log10 reduction vs nontreated controls [6, 12]: −0.13 log10
- Active concentrations [1]: 6.7 to 20 µM
- Tissue factor, log10 reduction vs nontreated controls ([7]; CASM3C system (system cell not printed on the line)): −0.13 log10
- Thrombomodulin, log10 reduction vs nontreated controls ([7]; CASM3C system): −0.11 log10
- IL-8, log10 reduction vs nontreated controls [9]: −0.13 log10

Structure (SMILES): O=C(O)c1cc(O)c2cccc(O)c2n1 [xanthurenate]
- Secreted prostaglandin E2 (PGE2), log10 reduction vs nontreated controls ([6]; 20 μM): −0.09 log10
- Secreted interleukin 6 (IL-6), log10 reduction vs controls ([3]; BT system (second system)): −0.13 log10
- TNF-alpha (sTNF-alpha), log10 reduction vs nontreated controls [3, 11]: −0.19 log10
